# Reference: ChEMBL document CHEMBL6182931, “Chemical Evolution of Aplithianine Class of Serine/Threonine Kinase Inhibitors” (J Med Chem, 2025)
# Activity calls are given as the source filed them. The rule behind the calls is not given here.
# Tests used:
# [1] = molecular target: Tyrosine-protein kinase JAK1 (Homo sapiens) (UniProt P23458); test: Inhibition of human JAK1 at 50 nM in presence of ATP by radiometric Hotspot kinase assay relative to control
# SR = test: Antiproliferative activity against human SR cells assessed as growth inhibition; format: functional
# [2] = molecular target: RAC-alpha serine/threonine-protein kinase (Homo sapiens) (UniProt P31749); test: Inhibition of human Akt1 at 50 nM in presence of ATP by radiometric Hotspot kinase assay
# RAC-alpha serine/threonine-protein kinase (Homo sapiens), sequence (P31749 whole entry): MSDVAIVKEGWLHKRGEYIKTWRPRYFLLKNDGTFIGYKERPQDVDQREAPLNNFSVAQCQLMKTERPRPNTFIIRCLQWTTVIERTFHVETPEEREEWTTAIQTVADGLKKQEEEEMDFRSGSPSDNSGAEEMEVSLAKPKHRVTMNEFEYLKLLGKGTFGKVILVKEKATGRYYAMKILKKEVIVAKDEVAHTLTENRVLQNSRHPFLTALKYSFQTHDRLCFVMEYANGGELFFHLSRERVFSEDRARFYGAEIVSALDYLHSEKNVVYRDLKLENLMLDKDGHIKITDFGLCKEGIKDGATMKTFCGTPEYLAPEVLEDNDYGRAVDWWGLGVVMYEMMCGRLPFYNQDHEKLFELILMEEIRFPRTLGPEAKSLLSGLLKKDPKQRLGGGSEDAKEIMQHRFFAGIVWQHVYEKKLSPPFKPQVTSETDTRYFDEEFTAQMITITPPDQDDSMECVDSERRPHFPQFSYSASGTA
# [3] = Drug metabolism in human liver microsomes at 0.1 uM measured after 60 mins; format: ADME, Microsome; details: 1 h
# [4] = molecular target: cAMP-dependent protein kinase catalytic subunit alpha (Homo sapiens) (UniProt P17612); details: dose 50.0 nM
# Description: Inhibition of human PKAalpha at 50 nM in presence of ATP by radiometric Hotspot kinase assay relative to control
# [5] = molecular target: cAMP-dependent protein kinase catalytic subunit beta (Homo sapiens) (UniProt P22694); test: Inhibition of human PKAbeta at 50 nM in presence of ATP by radiometric Hotspot kinase assay
# Albumin = Albumin (Homo sapiens, UniProt P02768); test: Binding affinity to human serum albumin assessed as protein binding at 10 uM by equilibrium dialysis technique relative to control; format: ADME; details: isolated protein
# Albumin, sequence (P02768 whole entry): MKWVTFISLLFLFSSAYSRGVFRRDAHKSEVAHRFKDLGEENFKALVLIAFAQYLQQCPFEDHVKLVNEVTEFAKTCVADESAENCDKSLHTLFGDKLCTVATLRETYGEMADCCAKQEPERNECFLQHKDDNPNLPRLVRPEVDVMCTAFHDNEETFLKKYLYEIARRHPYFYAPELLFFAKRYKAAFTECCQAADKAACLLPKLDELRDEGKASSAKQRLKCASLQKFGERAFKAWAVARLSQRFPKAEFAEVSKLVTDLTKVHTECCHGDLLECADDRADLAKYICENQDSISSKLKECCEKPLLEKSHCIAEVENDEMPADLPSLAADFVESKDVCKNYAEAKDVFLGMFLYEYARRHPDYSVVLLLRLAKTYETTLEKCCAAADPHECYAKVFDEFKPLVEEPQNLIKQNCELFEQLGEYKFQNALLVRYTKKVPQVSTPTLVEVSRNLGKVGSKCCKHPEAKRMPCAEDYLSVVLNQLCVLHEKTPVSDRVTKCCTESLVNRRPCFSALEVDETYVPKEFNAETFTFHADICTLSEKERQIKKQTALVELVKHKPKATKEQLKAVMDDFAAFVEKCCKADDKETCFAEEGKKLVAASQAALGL
# OVCAR-4 = test: Antiproliferative activity against human OVCAR-4 cells assessed as growth inhibition; format: functional, cell-based
# LOX IMVI = test: Antiproliferative activity against human LOX IMVI cells assessed as growth inhibition; format: functional
# [6] = molecular target: RAC-beta serine/threonine-protein kinase (Homo sapiens) (UniProt P31751); test: Inhibition of human Akt2 at 50 nM in presence of ATP by radiometric Hotspot kinase assay
# [7] = Apparent permeability across apical to basolateral side in human Caco-2 cells at 10 uM; format: ADME, cell-based; details: caco-2, 10 µM
# [8] = Inhibition of DNAJB1-PKAcalpha (unknown origin) using biotinylated-peptide substrate CREB incubated for 45 mins in presence of ATP and cAMP by ELISA; parameters: species or system Homo sapiens
# [9] = Aqueous solubility of compound in PBS at pH 7.4 by shake-flask method; format: physicochemical
# [10] = Inhibition of DNAJB1-PKAcalpha (unknown origin) overexpressed in mouse NIH/3T3 cells assessed as inhibition of CREB phosphorylation at Ser133 residue preincubated for 30 mins followed by forskolin addition and measured after 30 mins by fluorescence based multilabel reader analysis; format: cell-based; details: NIH3T3
# [11] = molecular target: T1, Dual specificity tyrosine-phosphorylation-regulated kinase 2 (Homo sapiens) (UniProt Q92630); test: Inhibition of human DYRK2 at 50 nM in presence of ATP by radiometric Hotspot kinase assay relative to control
# T1 sequence (whole entry): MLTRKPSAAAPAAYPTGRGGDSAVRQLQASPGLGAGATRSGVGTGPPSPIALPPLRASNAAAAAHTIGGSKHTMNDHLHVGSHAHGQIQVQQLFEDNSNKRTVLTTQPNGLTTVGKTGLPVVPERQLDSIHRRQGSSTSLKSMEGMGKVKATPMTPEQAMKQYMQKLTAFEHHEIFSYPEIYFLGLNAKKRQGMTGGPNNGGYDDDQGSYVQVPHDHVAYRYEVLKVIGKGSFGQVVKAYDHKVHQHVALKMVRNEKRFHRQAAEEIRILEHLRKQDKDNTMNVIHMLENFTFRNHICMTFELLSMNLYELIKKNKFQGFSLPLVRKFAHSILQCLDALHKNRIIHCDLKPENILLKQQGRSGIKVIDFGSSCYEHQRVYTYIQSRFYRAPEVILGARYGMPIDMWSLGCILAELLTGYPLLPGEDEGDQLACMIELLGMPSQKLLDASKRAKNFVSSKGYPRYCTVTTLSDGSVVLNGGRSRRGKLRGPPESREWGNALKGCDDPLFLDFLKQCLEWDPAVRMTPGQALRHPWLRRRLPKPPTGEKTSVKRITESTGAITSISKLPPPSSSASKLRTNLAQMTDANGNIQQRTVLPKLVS
# [12] = molecular target: Tyrosine-protein kinase JAK2 (Homo sapiens) (UniProt O60674); test: Inhibition of human JAK2 at 50 nM in presence of ATP by radiometric Hotspot kinase assay relative to control
# Tyrosine-protein kinase JAK2 (Homo sapiens), sequence (O60674 whole entry): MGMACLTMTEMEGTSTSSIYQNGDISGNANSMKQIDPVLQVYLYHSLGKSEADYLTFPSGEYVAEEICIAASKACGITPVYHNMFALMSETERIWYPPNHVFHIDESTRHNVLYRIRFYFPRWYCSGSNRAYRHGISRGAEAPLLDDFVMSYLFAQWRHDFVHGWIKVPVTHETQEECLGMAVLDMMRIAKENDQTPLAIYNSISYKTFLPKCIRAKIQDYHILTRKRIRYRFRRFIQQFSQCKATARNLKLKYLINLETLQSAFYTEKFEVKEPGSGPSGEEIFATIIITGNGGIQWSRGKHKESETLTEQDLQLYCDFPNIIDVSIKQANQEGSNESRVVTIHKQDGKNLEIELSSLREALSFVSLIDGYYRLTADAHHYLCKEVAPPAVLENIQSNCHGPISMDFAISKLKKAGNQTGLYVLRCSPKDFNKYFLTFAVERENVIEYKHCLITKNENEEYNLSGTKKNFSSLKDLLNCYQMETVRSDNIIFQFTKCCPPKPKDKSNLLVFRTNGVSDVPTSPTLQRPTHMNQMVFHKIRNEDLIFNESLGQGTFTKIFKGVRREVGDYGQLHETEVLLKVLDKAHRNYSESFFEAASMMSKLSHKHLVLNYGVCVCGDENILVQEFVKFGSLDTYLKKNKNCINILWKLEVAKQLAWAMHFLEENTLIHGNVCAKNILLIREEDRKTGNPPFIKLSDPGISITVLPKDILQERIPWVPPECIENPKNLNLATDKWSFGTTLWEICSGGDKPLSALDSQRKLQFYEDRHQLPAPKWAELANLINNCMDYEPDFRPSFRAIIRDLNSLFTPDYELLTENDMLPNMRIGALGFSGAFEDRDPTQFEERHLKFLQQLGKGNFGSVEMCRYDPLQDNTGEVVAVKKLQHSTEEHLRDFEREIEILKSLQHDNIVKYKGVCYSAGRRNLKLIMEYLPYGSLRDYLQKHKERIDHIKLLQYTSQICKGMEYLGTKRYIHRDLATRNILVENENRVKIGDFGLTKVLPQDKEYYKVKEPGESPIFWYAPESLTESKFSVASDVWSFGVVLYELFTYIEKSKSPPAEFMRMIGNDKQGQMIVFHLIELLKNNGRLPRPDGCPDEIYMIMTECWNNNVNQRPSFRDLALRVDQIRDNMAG
# [13] = Efflux ratio of apparent permeability across basolateral to apical side over apical to basolateral side in human Caco-2 cells at 10 uM; format: ADME, cell-based
# MOLT-4 = test: Antiproliferative activity against human MOLT-4 cells assessed as growth inhibition; format: functional
# MDA-MB-468 = test: Antiproliferative activity against human MDA-MB-468 cells assessed as growth inhibition; format: functional, cell-based
# [14] = molecular target: Tyrosine-protein kinase JAK3 (Homo sapiens) (UniProt P52333); test: Inhibition of human JAK3 at 50 nM in presence of ATP by radiometric Hotspot kinase assay relative to control
# NCI/ADR-RES = test: Antiproliferative activity against human NCI/ADR-RES cells assessed as growth inhibition; format: functional, cell-based
# hERG (KCNH2) = hERG (KCNH2) (Homo sapiens, UniProt Q12809); test: Inhibition of human ERG expressed in CHO cells at 10 uM by electrophysiological analysis relative to control; format: toxicity, cell-based; details: CHO cells that express human ERG
# [15] = Metabolic stability in human liver microsomes assessed as half-life at 0.1 uM measured after 60 mins; format: ADME, Microsome; details: 1 h
# [16] = Metabolic stability in human liver microsomes assessed as intrinsic clearance at 0.1 uM measured after 60 mins; format: ADME, Microsome; details: 1 h
# [17] = Apparent permeability across basolateral to apical side in human Caco-2 cells at 10 uM; format: ADME, cell-based; details: caco-2, 10 µM
# [18] = molecular target: T2, Dual specificity tyrosine-phosphorylation-regulated kinase 3 (Homo sapiens) (UniProt O43781); test: Inhibition of human DYRK3 at 50 nM in presence of ATP by radiometric Hotspot kinase assay relative to control
# T2 sequence (whole entry): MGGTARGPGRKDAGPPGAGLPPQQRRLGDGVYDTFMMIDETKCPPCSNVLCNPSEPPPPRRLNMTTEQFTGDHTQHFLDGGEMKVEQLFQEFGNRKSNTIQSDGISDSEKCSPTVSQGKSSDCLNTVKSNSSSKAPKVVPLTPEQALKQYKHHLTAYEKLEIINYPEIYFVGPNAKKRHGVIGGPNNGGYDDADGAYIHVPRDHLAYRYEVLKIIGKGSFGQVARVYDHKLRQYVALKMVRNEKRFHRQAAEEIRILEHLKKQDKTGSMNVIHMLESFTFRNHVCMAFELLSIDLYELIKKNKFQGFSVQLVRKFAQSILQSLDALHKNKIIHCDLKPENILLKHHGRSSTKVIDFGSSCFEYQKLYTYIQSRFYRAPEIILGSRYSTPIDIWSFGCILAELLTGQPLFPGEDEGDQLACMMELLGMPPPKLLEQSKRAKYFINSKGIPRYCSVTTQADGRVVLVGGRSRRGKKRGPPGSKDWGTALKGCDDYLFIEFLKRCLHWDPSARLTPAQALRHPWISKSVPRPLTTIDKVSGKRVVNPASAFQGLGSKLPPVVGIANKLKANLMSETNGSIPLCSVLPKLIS
# [19] = molecular target: RAC-gamma serine/threonine-protein kinase (Homo sapiens) (UniProt Q9Y243); test: Inhibition of human Akt3 at 50 nM in presence of ATP by radiometric Hotspot kinase assay
# RAC-gamma serine/threonine-protein kinase (Homo sapiens), sequence (Q9Y243 whole entry): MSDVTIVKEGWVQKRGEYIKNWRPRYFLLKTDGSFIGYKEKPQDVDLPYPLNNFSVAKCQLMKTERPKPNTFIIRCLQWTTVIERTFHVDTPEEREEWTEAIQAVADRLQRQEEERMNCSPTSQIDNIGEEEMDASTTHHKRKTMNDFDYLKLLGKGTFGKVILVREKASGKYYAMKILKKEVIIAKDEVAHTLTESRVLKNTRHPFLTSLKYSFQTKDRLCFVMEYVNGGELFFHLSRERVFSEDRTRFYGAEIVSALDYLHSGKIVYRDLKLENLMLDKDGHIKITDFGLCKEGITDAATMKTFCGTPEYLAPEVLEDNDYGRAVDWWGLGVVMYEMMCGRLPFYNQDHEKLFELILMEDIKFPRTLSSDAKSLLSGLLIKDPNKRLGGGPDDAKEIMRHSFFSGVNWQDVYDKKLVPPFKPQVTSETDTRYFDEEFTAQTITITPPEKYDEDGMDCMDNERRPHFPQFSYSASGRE
# [20] = molecular target: NT-3 growth factor receptor (Homo sapiens) (UniProt Q16288); test: Inhibition of human TRKC at 50 nM in presence of ATP by radiometric Hotspot kinase assay relative to control
# NT-3 growth factor receptor (Homo sapiens), sequence (Q16288 32-839 limits assumed): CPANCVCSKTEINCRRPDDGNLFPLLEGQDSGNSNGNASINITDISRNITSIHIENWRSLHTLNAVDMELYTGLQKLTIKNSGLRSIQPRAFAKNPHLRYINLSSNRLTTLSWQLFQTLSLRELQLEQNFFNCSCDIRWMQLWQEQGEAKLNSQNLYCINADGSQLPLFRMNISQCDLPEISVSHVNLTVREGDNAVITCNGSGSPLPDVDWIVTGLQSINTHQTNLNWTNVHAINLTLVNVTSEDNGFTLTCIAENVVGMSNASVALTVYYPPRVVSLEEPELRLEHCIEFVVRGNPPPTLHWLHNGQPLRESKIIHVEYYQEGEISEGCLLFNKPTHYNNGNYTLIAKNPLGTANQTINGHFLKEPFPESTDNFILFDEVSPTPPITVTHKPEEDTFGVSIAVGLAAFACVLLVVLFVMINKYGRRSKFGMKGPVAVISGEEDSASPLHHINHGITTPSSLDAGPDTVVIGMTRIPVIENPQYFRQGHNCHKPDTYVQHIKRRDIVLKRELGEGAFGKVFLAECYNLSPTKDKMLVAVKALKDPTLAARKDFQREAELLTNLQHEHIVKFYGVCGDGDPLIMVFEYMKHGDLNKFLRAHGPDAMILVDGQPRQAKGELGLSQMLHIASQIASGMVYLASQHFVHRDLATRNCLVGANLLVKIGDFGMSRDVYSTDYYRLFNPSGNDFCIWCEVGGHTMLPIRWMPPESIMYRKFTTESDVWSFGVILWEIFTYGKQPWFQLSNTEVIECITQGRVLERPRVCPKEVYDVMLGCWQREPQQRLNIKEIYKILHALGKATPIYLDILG
# Tyrosine-protein kinase JAK1 (Homo sapiens), sequence (P23458 whole entry): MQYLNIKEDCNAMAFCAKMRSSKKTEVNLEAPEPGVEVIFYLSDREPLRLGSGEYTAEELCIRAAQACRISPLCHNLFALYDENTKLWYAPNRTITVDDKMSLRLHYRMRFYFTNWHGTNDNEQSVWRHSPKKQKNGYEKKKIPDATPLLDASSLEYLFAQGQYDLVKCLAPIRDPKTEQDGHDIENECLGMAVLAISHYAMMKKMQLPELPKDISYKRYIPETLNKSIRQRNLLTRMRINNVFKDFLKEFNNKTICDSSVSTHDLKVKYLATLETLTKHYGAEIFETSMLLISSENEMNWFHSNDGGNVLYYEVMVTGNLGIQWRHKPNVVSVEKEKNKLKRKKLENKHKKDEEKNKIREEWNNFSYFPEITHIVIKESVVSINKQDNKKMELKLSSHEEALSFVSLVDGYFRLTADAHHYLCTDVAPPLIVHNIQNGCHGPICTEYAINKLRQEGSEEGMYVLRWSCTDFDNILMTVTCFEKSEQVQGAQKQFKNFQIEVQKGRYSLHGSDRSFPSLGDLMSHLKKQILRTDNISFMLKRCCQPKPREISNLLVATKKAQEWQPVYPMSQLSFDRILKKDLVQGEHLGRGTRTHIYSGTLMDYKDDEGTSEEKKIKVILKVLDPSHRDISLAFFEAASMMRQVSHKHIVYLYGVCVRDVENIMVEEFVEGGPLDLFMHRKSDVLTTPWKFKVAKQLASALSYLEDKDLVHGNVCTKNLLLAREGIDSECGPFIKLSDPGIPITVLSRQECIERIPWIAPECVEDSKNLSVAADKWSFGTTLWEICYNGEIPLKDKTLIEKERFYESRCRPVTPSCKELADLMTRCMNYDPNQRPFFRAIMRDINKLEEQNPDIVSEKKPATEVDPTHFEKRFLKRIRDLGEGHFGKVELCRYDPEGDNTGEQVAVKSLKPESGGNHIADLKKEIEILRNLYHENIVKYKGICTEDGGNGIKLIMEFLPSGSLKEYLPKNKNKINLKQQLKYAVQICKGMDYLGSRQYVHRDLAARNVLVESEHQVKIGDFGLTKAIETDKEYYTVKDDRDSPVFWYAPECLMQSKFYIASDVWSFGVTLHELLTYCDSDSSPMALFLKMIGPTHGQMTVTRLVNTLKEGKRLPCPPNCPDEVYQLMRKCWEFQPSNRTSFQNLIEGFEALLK
structure (smiles),measurement,setting,value
O=C(N[C@@H](c1ccccc1)[C@H]1CCCN1)C1=CN(c2ncnc3[nH]ccc23)CCS1,inhibition,[1],> 50%
same,Activity,SR,Active
same,inhibition,[2],Active
same,Drug metabolism,[3],metabolite_notdetected
same,inhibition,[4],Active
same,inhibition,[5],Active
same,PB,Albumin,84%
same,Activity,OVCAR-4,inactive
same,GI50,LOX IMVI,40 nM
same,inhibition,[6],Active
same,Papp,[7],0.3 10^-6 cm/s
same,IC50,[8],6 nM
same,solubility thermodynamic,[9],> 200 µM
same,IC50,[10],660 nM
same,inhibition,[11],Active
same,inhibition,[12],> 50%
same,efflux ratio at 10 µM,[13],66
same,Activity,MOLT-4,Active
same,Activity,MDA-MB-468,Active
same,inhibition,[14],> 50%
same,Activity,NCI/ADR-RES,inactive
same,inhibition at 10 µM,hERG (KCNH2),33%
same,t1/2,[15],> 1 h
same,CLH,[16],< 115 µL/min/mg
same,Papp,[17],19.7 10^-6 cm/s
same,inhibition,[18],Active
same,inhibition,[19],Active
same,inhibition,[20],> 50%
